Source: patent publication US5686102A, “Pharmacological composition for topical administration” (Lancaster Group AG, priority 1992, dated 1997)
Like-named read-outs stand apart in the source and are kept apart here.

Columns and labels:
[1] = Critical solubility temperature (CST) in n-hexane
Source text: FIG. 1 is a diagram of the critical solubility temperatures (CST) of perfluorocarbon mixtures in n-hexane using perfluorodecalin as a starting point
FIG. 2 is a diagram of the critical solubility temperatures of perfluorocarbon mixtures in n-hexane using F-octylbromide as a starting point.

[2] = Penetration into skin and residence time/release of labelled encapsulated fluorocarbons, animal experiments; format: in vivo
Source text: By means of separate investigations, it was possible to determine the dependence of the penetration rates and the depth of penetration on the particle size of the aggregates experimentally in animal experiments using labelled encapsulated fluorocarbons. […] The choice of fluorocarbons or mixtures thereof according to their lipid solubility (represented by their critical solubility temperature CST in n-hexane) permits, as a further important criterion, the control of the residence time in the tissue. […] With the aid of fluorocarbon mixtures, in this way systems having desired CST values, i.e. lipid and membrane solubilities, with respect to the intended use can be prepared in a controlled manner.

[3] = O2 solubility of fluorocarbons; format: physicochemical
[4] = Vapour pressure of fluorocarbons at 37° C.; format: physicochemical
[5] = critical solubility temperature in n-hexane

| SMILES | CST [1, 5] | CST [1] | other results |
| --- | --- | --- | --- |
| FC(F)(F)C1(F)C(F)(F)C(F)(F)C(F)(F)C(F)(F)C1(F)F [F-methylcyclohexane, perfluoromethylcyclohexane] | 8.2 °C | – | – |
| FC(F)(F)C(F)(F)C(F)(F)C(F)(F)N(C(F)(F)C(F)(F)C(F)(F)C(F)(F)F)C(F)(F)C(F)(F)C(F)(F)C(F)(F)F [F-tributylamine, perfluorotributylamine] | 59 °C | – | residence time in the tissue ([2]; in words, related to CST / lipid solubility): relatively large residence time |
| FC(F)(F)C(F)(F)C(F)(F)C(F)(F)C=CC(F)(F)C(F)(F)C(F)(F)C(F)(F)F [Bis-F(butyl)ethene, bis-F(butyl)ethene] | 22.5 °C | – | – |
| FC(F)(F)C(F)(F)C(F)(F)N(C(F)(F)C(F)(F)C(F)(F)F)C(F)(F)C(F)(F)C(F)(F)F [F-tripropylamine] | – | 43 °C | – |
| FC(F)(F)C(F)(F)C(F)(F)C(F)(F)C(F)(F)C(F)(F)OC(F)(F)C(F)(F)C(F)(F)C(F)(F)C(F)(F)C(F)(F)F [F-dihexyl ether] | 59 °C | – | – |
| FC1(F)OC(F)(F)C(F)(F)N(C(F)(F)C2(F)C(F)(F)C(F)(F)C(F)(F)C(F)(F)C2(F)F)C1(F)F [F-cyclohexylmethylmorpholine] | 38.5 °C | – | O2 solubility [3]: 42 ml of O2 /100 ml of Fc; Vapour Pressure [4]: 4 mm Hg |
| FC(F)(F)C(F)(F)C(F)(F)C(F)(F)C(F)(F)C(F)(F)F [F-hexane, perfluorohexane] | – | – | release from the tissue ([2]; in vivo): released correspondingly more rapidly from the tissue |
| FC1(F)C(F)(F)C(F)(F)C2(F)C(F)(F)C(F)(F)C(F)(F)C(F)(F)C2(F)C1(F)F (centres unmarked) [Perfluorodecalin, perfluorodecalin] | – | 22 °C | release from the tissue ([2]; in vivo): released correspondingly more rapidly from the tissue |
| FC(F)(F)C(F)(F)C(F)(F)C(F)(F)C1(F)OC(F)(F)C(F)(F)C1(F)F (centres unmarked) [Perfluorobutyltetrahydrofuran, perfluorobutyltetrahydrofuran] | 29 °C | – | O2 solubility [3]: 52 ml of O2 /100 ml of Fc; release from the tissue ([2]; in words, compared with perfluorotributylamine): released correspondingly more rapidly from the tissue; Vapour Pressure [4]: 51 mm Hg |
| FC(F)(F)C(F)(F)C(F)(F)C(F)(F)C(F)(F)C(F)(F)C(F)(F)C(F)(F)Br [Perfluorooctyl bromide, perfluorooctyl bromide] | – | -24.5 °C | – |
